Assay results as given in ChEMBL document CHEMBL1151090, “Synthesis of racemic 2-phosphonomethyl-1,3-dioxolane nucleoside analogues as potential antiviral agents” (Bioorg Med Chem Lett, 1995).

Columns and labels:
MT4 [1] = test: Inhibitory activity of compound was determined against HIV-1 replication in MT-4 cells; […]; type: functional, cell-based; conditions: Homo sapiens
MT4 [2] = test: Inhibitory activity against HIV-1 replication in MT-4 cells; Not cytotoxic; type: functional, cell-based; conditions: Homo sapiens
MT4 [3] = test: Inhibitory activity against HIV-1 replication in MT-4 cells; not cytotoxic; type: functional, cell-based; conditions: Homo sapiens
MT4 [4] = test: Inhibitory activity of compound was determined against HIV-1 replication in MT-4 cells; type: functional, cell-based; conditions: Homo sapiens
MT4 [5] = test: Compound was tested for its […] in MT-4 cells; type: functional; conditions: Homo sapiens, read-out: CD50 (the source's name)
MT4 [6] = test: Inhibitory activity of compound was determined against HIV-1 replication in MT-4 cells; weak activity; type: functional, cell-based; conditions: Homo sapiens

Structure (SMILES)	EC50 (MT4 [1]) [µM]	IC50 (MT4 [3]) [µM]	also measured
Nc1nc(O)c2ncn([C@H]3CO[C@H](CP(=O)(O)O)O3)c2n1	> 332	–	IC50 (MT4 [2]): > 332 µM
Cc1cn([C@H]2CO[C@H](CP(=O)(O)O)O2)c(=O)[nH]c1=O	> 332	> 332	–
Nc1ccn([C@H]2CO[C@H](CP(=O)(O)O)O2)c(=O)n1	> 332	> 332	–
Nc1nc(O)c2ncn([C@H]3CO[C@@H](CP(=O)(O)O)O3)c2n1	> 332	> 332	–
Cc1cn([C@H]2CO[C@@H](CP(=O)(O)O)O2)c(=O)[nH]c1=O	> 332	> 332	–
Nc1ccn([C@H]2CO[C@@H](CP(=O)(O)O)O2)c(=O)n1	312	> 332	–
Cc1cn(C2COC(CO[PH](=O)O)O2)c(=O)[nH]c1=O (stereo not given)	–	–	EC50 (MT4 [4]): 51 µM; CC50 (MT4 [5]): 342 µM
CC(=O)Nc1ccn(C2COC(CP(=O)(O)O)O2)c(=O)n1 (stereo not given)	–	–	EC50 (MT4 [6]): 312 µM
